# According to patent publication US20190192699A1, “NUCLEAR IMAGING AND RADIOTHERAPEUTICS AGENTS TARGETING CARBONIC ANHYDRASE IX AND USES THEREOF” (THE JOHNS HOPKINS UNIVERSITY, priority 2016, published 2019):
# Where “and” joins values, the source holds several entries; their conditions need not be identical. Equal values may be shown once.
# Tested on: SK-RC-52 xenografts
# Assay: Biodistribution of [111In]XYIMSR-01 and [177Lu]XYIMSR-01
# Type: in vivo, mice
# Protocol: Cell Lines and Mouse Models. Animal experiments were performed in accordance with protocols approved by the Johns Hopkins Animal Care and Use Committee (ACUC). Six-week-old female NOD/SCID mice were purchased from the Animal Resource Core of the Sidney Kimmel Comprehensive Cancer Center of Johns Hopkins and were subcutaneously injected in the lower left flank or upper right flank with 1×10^6 SK-RC-52 cells in RPMI 1640 GlutaMAX™ media (Life Technologies, Frederick, Md.) supplemented with 1% fetal bovine serum (FBS). Mice were monitored for tumor size and used for SPECT/CT imaging when the size of the tumor reached 100 mm^3.
# Biodistribution of [^111In]XYIMSR-01 and [^177Lu]XYIMSR-01. Mice bearing SK-RC-52 xenografts at lower left flank were injected intravenously with 740 kBq (20 μCi) of [^111In]XYIMSR-01, or [^177Lu]XYIMSR-01 in 200 μL of PBS. For competitive blocking, same tumor bearing mice were injected with 740 kBq (20 μCi) of [^111In]XYIMSR-01 and 200 nmole of 1 in 200 μL of PBS. At 1 h, 4 h, 8 h, 24 h and 48 h post-injection, mice were sacrificed by cervical dislocation and the blood was immediately collected by cardiac puncture. Heart, lungs, pancreas, spleen, fat, brain, muscle, small intestines, liver, stomach, kidney, urinary bladder, and tumor were collected. Each organ was weighed and the tissue radioactivity was measured with an automated gamma counter (1282 Compugamma CS, Pharmacia/LKBNuclear, Inc., Mt. Waverly, Vic. Australia). The percentage of injected dose per gram of tissue (% ID/g) was calculated by comparison with samples of a standard dilution of the initial dose. All measurements were corrected for radioactive decay.
# Data were expressed as mean±standard deviation (SD). Prism software (GraphPAD, San Diego, Calif.) was used to determine statistical significance. Statistical significance was calculated using a paired t test. P-values […] were considered significant.
# [1] = 24 hr + Block (200 nmole of 1 co-injected)
structure (smiles),measurement,setting,value
CC(CCC(=O)N[C@@H](CC(=O)N[C@@H](CC(=O)N[C@@H](CCCCn1cc(CCCC(=O)Nc2nnc(S(N)(=O)=O)s2)nn1)C(=O)NCCOCCOCCNC(=O)CN1CCN(CC(=O)[O-])CCN(CC(=O)[O-])CCN(CC(=O)[O-])CC1)C(=O)O)C(=O)O)(c1ccc(O)cc1)c1ccc(O)cc1.[111In+3] [[^111In]XYIMSR-01],Biodistribution: Bladder,1 hr post-injection,4.90 ± 4.96 % ID/g
same,Biodistribution: Blood,1 hr post-injection,1.34 ± 0.17 % ID/g
same,Biodistribution: Brain,1 hr post-injection,1.23 ± 1.10 % ID/g
same,Biodistribution: Fat,1 hr post-injection,1.03 ± 0.24 % ID/g
same,Biodistribution: Heart,1 hr post-injection,5.98 ± 0.53 % ID/g
same,Biodistribution: Kidney,1 hr post-injection,71.26 ± 8.74 % ID/g
same,Biodistribution: Liver,1 hr post-injection,8.36 ± 0.73 % ID/g
same,Biodistribution: Lung,1 hr post-injection,45.85 ± 19.89 % ID/g
same,Biodistribution: Muscle,1 hr post-injection,2.34 ± 2.19 % ID/g
same,Biodistribution: Pancreas,1 hr post-injection,3.81 ± 0.72 % ID/g
same,Biodistribution: Small intestine,1 hr post-injection,9.37 ± 1.26 % ID/g
same,Biodistribution: Spleen,1 hr post-injection,0.52 ± 0.04 % ID/g
same,Biodistribution: Stomach,1 hr post-injection,16.71 ± 2.46 % ID/g
same,Biodistribution: Tumor,1 hr post-injection,26 % ID/g and 26.01 ± 5.74 % ID/g
same,Tumor/Blood ratio,1 hr post-injection,19.7 and 19.7 ± 4.8
same,Tumor/Kidney ratio,1 hr post-injection,0.36 ± 0.06
same,Tumor/Muscle ratio,1 hr post-injection,12.7 and 12.7 ± 5.8
same,Biodistribution: Bladder,4 hr post-injection,2.68 ± 1.89 % ID/g
same,Biodistribution: Blood,4 hr post-injection,0.65 ± 0.06 % ID/g
same,Biodistribution: Brain,4 hr post-injection,0.45 ± 0.06 % ID/g
same,Biodistribution: Fat,4 hr post-injection,0.42 ± 0.22 % ID/g
same,Biodistribution: Heart,4 hr post-injection,2.91 ± 0.45 % ID/g
same,Biodistribution: Kidney,4 hr post-injection,41.52 ± 6.07 % ID/g
same,Biodistribution: Liver,4 hr post-injection,4.00 ± 0.8 % ID/g
same,Biodistribution: Lung,4 hr post-injection,17.85 ± 3.55 % ID/g
same,Biodistribution: Muscle,4 hr post-injection,1.01 ± 0.28 % ID/g
same,Biodistribution: Pancreas,4 hr post-injection,1.54 ± 0.40 % ID/g
same,Biodistribution: Small intestine,4 hr post-injection,4.27 ± 0.69 % ID/g
same,Biodistribution: Spleen,4 hr post-injection,0.51 ± 0.08 % ID/g
same,Biodistribution: Stomach,4 hr post-injection,7.91 ± 1.28 % ID/g
same,Biodistribution: Tumor,4 hr post-injection,20.8 % ID/g and 20.83 ± 6.25 % ID/g
same,Tumor/Blood ratio,4 hr post-injection,31.9 ± 9.4
same,Tumor/Kidney ratio,4 hr post-injection,0.50 ± 0.15
same,Tumor/Muscle ratio,4 hr post-injection,21.4 ± 7.2
same,Biodistribution: Bladder,8 hr post-injection,2.28 ± 0.51 % ID/g
same,Biodistribution: Blood,8 hr post-injection,0.48 ± 0.02 % ID/g
same,Biodistribution: Brain,8 hr post-injection,0.59 ± 0.09 % ID/g
same,Biodistribution: Fat,8 hr post-injection,0.45 ± 0.08 % ID/g
same,Biodistribution: Heart,8 hr post-injection,2.61 ± 0.35 % ID/g
same,Biodistribution: Kidney,8 hr post-injection,28.79 ± 21.35 % ID/g
same,Biodistribution: Liver,8 hr post-injection,3.65 ± 0.65 % ID/g
same,Biodistribution: Lung,8 hr post-injection,17.39 ± 8.99 % ID/g
same,Biodistribution: Muscle,8 hr post-injection,1.09 ± 0.15 % ID/g
same,Biodistribution: Pancreas,8 hr post-injection,1.61 ± 0.28 % ID/g
same,Biodistribution: Small intestine,8 hr post-injection,4.31 ± 0.67 % ID/g
same,Biodistribution: Spleen,8 hr post-injection,0.64 ± 0.07 % ID/g
same,Biodistribution: Stomach,8 hr post-injection,8.74 ± 1.26 % ID/g
same,Biodistribution: Tumor,8 hr post-injection,34.0 % ID/g and 34.00 ± 15.16 % ID/g
same,Tumor/Blood ratio,8 hr post-injection,77.0 ± 32.5
same,Tumor/Kidney ratio,8 hr post-injection,3.1 ± 3.1
same,Tumor/Muscle ratio,8 hr post-injection,34.2 ± 16.0
same,Tumor/liver ratio,24 h,8.5
same,uptake to tumors with simultaneously injected non-radioactive competitor 1,24 h and 48 h post injection,~1%
same,"tumor/organ ratio, all other organs",24 h post-injection,≥ 10
same,Biodistribution: Bladder,[1],0.20 ± 0.07 % ID/g
same,Biodistribution: Blood,[1],0.03 ± 0.00 % ID/g
same,Biodistribution: Brain,[1],0.03 ± 0.00 % ID/g
same,Biodistribution: Fat,[1],0.02 ± 0.01 % ID/g
same,Biodistribution: Heart,[1],0.04 ± 0.01 % ID/g
same,Biodistribution: Kidney,[1],0.68 ± 0.14 % ID/g
same,Biodistribution: Liver,[1],0.10 ± 0.02 % ID/g
